Measured values reported in the NIST ThermoML archive (doi:10.1016/j.fluid.2017.03.021).

Tests used:
[1] = 101.33 kPa, Liquid; for speed of sound: Sing-around technique in a fixed-path interferometer; for mass density: Vibrating tube method; for viscosity: Falling or rolling sphere viscometry
[2] = molar heat capacity at constant pressure; conditions: 101.33 kPa, Liquid, DSC

CCCCn1cc[n+](C(CC)CC)c1.O=S(=O)([N-]S(=O)(=O)C(F)(F)F)C(F)(F)F
Conditions | mass density, [1] [kg/m3] | molar heat capacity at constant pressure, [2] [J/K/mol] | speed of sound, [1] [m/s] | viscosity, [1] [mPa·s]
287.15 K | 1329.4 | – | 1238.8 | –
289.15 K | 1327.6 | – | 1233.8 | –
291.15 K | 1325.8 | – | 1228.9 | –
293.15 K | 1324 | – | 1224.1 | 159.5
294.15 K | – | 692.9 | – | 148.8
295.15 K | 1322.2 | 694.28 | 1219.3 | –
296.15 K | – | 695.14 | – | –
297.15 K | 1320.4 | 695.85 | 1214.5 | –
298.15 K | – | 696.61 | – | 118.2
299.15 K | 1318.6 | 697.52 | 1209.8 | –
300.15 K | – | 698.18 | – | –
301.15 K | 1316.8 | 698.85 | 1205.1 | –
302.15 K | – | 699.65 | – | –
303.15 K | 1315 | 700.37 | 1200.4 | 89.55
304.15 K | – | 701.22 | – | –
305.15 K | 1313.2 | 701.89 | 1195.8 | –
306.15 K | – | 702.56 | – | –
307.15 K | 1311.5 | 703.46 | 1191.2 | –
308.15 K | – | 704.22 | – | –
309.15 K | 1309.7 | 704.93 | 1186.7 | –
310.15 K | – | 705.84 | – | –
311.15 K | 1307.9 | 706.6 | 1182.1 | –
312.15 K | – | 707.21 | – | –
313.15 K | 1306.2 | 707.88 | 1177.6 | 54.83
314.15 K | – | 708.69 | – | –
315.15 K | 1304.4 | 709.45 | 1173.1 | –
316.15 K | – | 710.35 | – | –
317.15 K | 1302.6 | 711.16 | 1168.6 | –
318.15 K | – | 711.87 | – | –
319.15 K | 1300.9 | 712.97 | 1164.2 | –
320.15 K | – | 713.78 | – | –
321.15 K | 1299.1 | 714.58 | 1159.8 | –
322.15 K | – | 715.35 | – | –
323.15 K | 1297.4 | 716.3 | 1155.4 | 35.98
324.15 K | – | 717.1 | – | –
325.15 K | 1295.7 | 718.2 | 1151 | –
326.15 K | – | 718.67 | – | –
327.15 K | 1293.9 | 719.58 | 1146.6 | –
328.15 K | – | 720.2 | – | –
329.15 K | 1292.2 | 721.15 | 1142.3 | –
330.15 K | – | 721.72 | – | –
331.15 K | 1290.5 | 722.48 | 1137.9 | –
332.15 K | – | 723.24 | – | –
333.15 K | 1288.7 | 723.9 | 1133.6 | 25.07
334.15 K | – | 724.81 | – | –
335.15 K | 1287 | 725.43 | 1129.3 | –
336.15 K | – | 726.23 | – | –
337.15 K | 1285.3 | 726.9 | 1125 | –
338.15 K | – | 727.47 | – | –
339.15 K | 1283.6 | 728.09 | 1120.8 | –
340.15 K | – | 729.04 | – | –
341.15 K | 1281.8 | 729.42 | 1116.6 | –
342.15 K | – | 730.13 | – | –
343.15 K | 1280.1 | 731.13 | 1112.4 | 18.26
344.15 K | – | 731.94 | – | –
345.15 K | – | 732.61 | – | –
346.15 K | – | 733.37 | – | –
347.15 K | – | 733.89 | – | –
348.15 K | – | 734.79 | – | –
353.15 K | – | – | – | 13.84
